Results reported in patent US11208400B2, “Substituted 6-(1H-pyrazol-1-yl)pyrimidin-4-amine derivatives and uses thereof” (Bayer Aktiengesellschaft, priority 2016, dated 2021).

The compounds below were run against T1, human Npt2a (Homo sapiens, UniProt Q06495) (assay: Npt2a activity cell based assay, membrane potential dye, CHO T-REx hNpt2a cells). Settings: doxycycline-induced, depolarization by sodium phosphate influx, average or median values if tested more than once.
T1 construct: expressed in transfected cells
T1 sequence (Q06495 1-639): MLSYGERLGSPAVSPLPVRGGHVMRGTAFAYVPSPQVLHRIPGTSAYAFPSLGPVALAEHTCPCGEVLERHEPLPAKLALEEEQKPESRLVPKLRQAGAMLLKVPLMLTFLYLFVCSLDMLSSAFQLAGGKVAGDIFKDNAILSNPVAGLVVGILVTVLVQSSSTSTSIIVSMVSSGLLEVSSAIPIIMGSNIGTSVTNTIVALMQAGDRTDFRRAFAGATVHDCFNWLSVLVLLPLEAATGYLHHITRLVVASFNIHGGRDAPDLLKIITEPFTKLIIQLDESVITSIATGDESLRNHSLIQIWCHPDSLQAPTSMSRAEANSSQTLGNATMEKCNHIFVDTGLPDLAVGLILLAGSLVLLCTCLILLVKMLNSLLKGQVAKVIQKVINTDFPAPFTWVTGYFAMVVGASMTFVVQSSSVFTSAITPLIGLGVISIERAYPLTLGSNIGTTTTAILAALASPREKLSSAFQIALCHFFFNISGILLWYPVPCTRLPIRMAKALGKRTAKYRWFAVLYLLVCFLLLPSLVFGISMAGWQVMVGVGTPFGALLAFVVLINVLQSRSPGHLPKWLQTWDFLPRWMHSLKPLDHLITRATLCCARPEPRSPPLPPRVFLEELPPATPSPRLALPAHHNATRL
Outline: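 Cells were doxycycline-induced CHO T-REx hNpt2a, dye-loaded and pretreated 5 min at RT with 1 nM–50 μM compound in Na-free pH 7.4 buffer. IC50 was fit to the post/pre-trigger fluorescence ratio.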

In order of falling IC50:
1. CCc1c(Nc2cc(-n3nc4c(c3O)CCCC4)ncn2)nn(C)c1-c1ccc(F)cc1 [Example 29, 2-(6-{[4-ethyl-5-(4-fluorophenyl)-1-methyl-1H-pyrazol-3-yl]amino}pyrimidin-4-yl)-4,5,6,7-tetrahydro-2H-indazol-3-ol]  1420 nM
2. COc1c(Nc2cc(-n3nc(C)c(OC)c3C)ncn2)nn(C)c1-c1ccc(C#N)cc1 [Example 493, 4-(4-methoxy-3-{[6-(4-methoxy-3,5-dimethyl-1H-pyrazol-1-yl)pyrimidin-4-yl]amino}-1-methyl-1H-pyrazol-5-yl)benzonitrile]  625 nM
3. COc1c(-c2ccc(C#N)cc2)nn(C)c1Nc1cc(-n2nc(C)c(CC(C)(C)O)c2C)ncn1 [Example 428, 4-[5-({6-[4-(2-hydroxy-2-methylpropyl)-3,5-dimethyl-1H-pyrazol-1-yl]pyrimidin-4-yl}amino)-4-methoxy-1-methyl-1H-pyrazol-3-yl]benzonitrile]  550 nM
4. CCc1c(Nc2cc(-n3cc4c(n3)CN(C(=O)OC(C)(C)C)CC4)ncn2)n[nH]c1-c1ccc(F)cc1 [Example 26, tert-butyl 2-(6-{[4-ethyl-5-(4-fluorophenyl)-1H-pyrazol-3-yl]amino}pyrimidin-4-yl)-2,4,5,7-tetrahydro-6H-pyrazolo[3,4-c]pyridine-6-carboxylate]  460 nM
5. CCc1c(-c2ccc(F)cc2)nn(C)c1Nc1cc(-n2nc(C)c3ncccc32)ncn1 [Example 229, N-[4-ethyl-3-(4-fluorophenyl)-1-methyl-1H-pyrazol-5-yl]-6-(3-methyl-1H-pyrazolo[4,3-b]pyridin-1-yl)pyrimidin-4-amine]  350 nM
6. COc1ccc(-c2nn(CC3CC3)c(Nc3cc(-n4nc(C)cc4C(F)F)ncn3)c2C)cc1 [Example 489, N-[1-(cyclopropylmethyl)-3-(4-methoxyphenyl)-4-methyl-1H-pyrazol-5-yl]-6-[5-(difluoromethyl)-3-methyl-1H-pyrazol-1-yl]pyrimidin-4-amine]  270 nM
7. Cc1cc(C)n(-c2cc(Nc3c(C)c(-c4ccc(F)cc4)nn3CC(O)C3CC3)ncn2)n1 (single isomer, unassigned) [Example 371, 1-cyclopropyl-2-[5-{[6-(3,5-dimethyl-1H-pyrazol-1-yl)pyrimidin-4-yl]amino}-3-(4-fluorophenyl)-4-methyl-1H-pyrazol-1-yl]ethanol]  240 nM
8. Cc1cc(C)n(-c2cc(Nc3nn(C)c(-c4ccc(F)cc4F)c3Cl)ncn2)n1 [Example 55, N-[4-chloro-5-(2,4-difluorophenyl)-1-methyl-1H-pyrazol-3-yl]-6-(3,5-dimethyl-1H-pyrazol-1-yl)pyrimidin-4-amine]  133 nM
9. Cc1ccc(-c2nn(CC3CC3)c(Nc3cc(-n4nc(C)c(C(C)(C)O)c4C)ncn3)c2C)cc1 [Example 389, 2-[1-(6-{[1-(cyclopropylmethyl)-4-methyl-3-(4-methylphenyl)-1H-pyrazol-5-yl]amino}pyrimidin-4-yl)-3,5-dimethyl-1H-pyrazol-4-yl]propan-2-ol]  130 nM
10. CCc1c(-c2ccc(F)cc2)nn(CC2CC2)c1Nc1cc(-n2nc(C)c(Cl)c2C(F)F)ncn1 [Example 148, 6-[4-chloro-5-(difluoromethyl)-3-methyl-1H-pyrazol-1-yl]-N-[1-(cyclopropylmethyl)-4-ethyl-3-(4-fluorophenyl)-1H-pyrazol-5-yl]pyrimidin-4-amine]  80 nM
11. CCc1c(-c2ccc(F)cc2)nn(C)c1Nc1cc(-n2nc(C)c(Cl)c2C)ncn1 [Example 97, 6-(4-chloro-3,5-dimethyl-1H-pyrazol-1-yl)-N-[4-ethyl-3-(4-fluorophenyl)-1-methyl-1H-pyrazol-5-yl]pyrimidin-4-amine]  75 nM
12. Cc1cc(C)n(-c2cc(Nc3nn(C)c(-c4cccc(C#N)c4)c3C)ncn2)n1 [Example 189, 3-(3-{[6-(3,5-dimethyl-1H-pyrazol-1-yl)pyrimidin-4-yl]amino}-1,4-dimethyl-1H-pyrazol-5-yl)benzonitrile]  74 nM
13. CCc1c(Nc2cc(-n3nc(C)c4cnccc43)ncn2)nn(C)c1-c1ccc(F)cc1 [Example 224, N-[4-ethyl-5-(4-fluorophenyl)-1-methyl-1H-pyrazol-3-yl]-6-(3-methyl-1H-pyrazolo[4,3-c]pyridin-1-yl)pyrimidin-4-amine]  47 nM
14. Cc1nn(-c2cc(Nc3c(C)c(-c4ccc(OC(F)F)cc4)nn3CC3CC3)ncn2)c(C)c1C(F)(F)F [Example 478, N-{1-(cyclopropylmethyl)-3-[4-(difluoromethoxy)phenyl]-4-methyl-1H-pyrazol-5-yl}-6-[3,5-dimethyl-4-(trifluoromethyl)-1H-pyrazol-1-yl]pyrimidin-4-amine]  45 nM
15. Cc1cc(C)n(-c2cc(Nc3c(C)c(-c4ccccc4)nn3C)ncn2)n1 [Example 75, N-(1,4-dimethyl-3-phenyl-1H-pyrazol-5-yl)-6-(3,5-dimethyl-1H-pyrazol-1-yl)pyrimidin-4-amine]  42 nM
16. Cc1nn(-c2cc(Nc3nn(C)c(-c4ccc(F)cc4)c3C)ncn2)c(C)c1C(O)CC(C)C (stereo not shown) [Example 456, 1-[1-(6-{[5-(4-fluorophenyl)-1,4-dimethyl-1H-pyrazol-3-yl]amino}pyrimidin-4-yl)-3,5-dimethyl-1H-pyrazol-4-yl]-3-methylbutan-1-ol]  41 nM
17. Cc1cc(C)n(-c2cc(Nc3n[nH]c(-c4ccc(F)cc4)c3C3CC3)ncn2)n1 [Example 7, N-[4-cyclopropyl-5-(4-fluorophenyl)-1H-pyrazol-3-yl]-6-(3,5-dimethyl-1H-pyrazol-1-yl)pyrimidin-4-amine]  36 nM
18. Cc1nn(-c2cc(Nc3c(Cl)c(-c4ccc(F)cc4)nn3CC3CC3)ncn2)c(C)c1Cl [Example 185, N-[4-chloro-1-(cyclopropylmethyl)-3-(4-fluorophenyl)-1H-pyrazol-5-yl]-6-(4-chloro-3,5-dimethyl-1H-pyrazol-1-yl)pyrimidin-4-amine]  27 nM
19. COc1c(C)nn(-c2cc(Nc3c(C)c(-c4ccc(F)cc4)nn3C)ncn2)c1C [Example 437, N-[3-(4-fluorophenyl)-1,4-dimethyl-1H-pyrazol-5-yl]-6-(4-methoxy-3,5-dimethyl-1H-pyrazol-1-yl)pyrimidin-4-amine]  21 nM
20. CCc1c(Nc2cc(-n3nc(C)cc3C(C)(C)O)ncn2)nn(C)c1-c1ccc(F)cc1 [Example 125, 2-[1-(6-{[4-ethyl-5-(4-fluorophenyl)-1-methyl-1H-pyrazol-3-yl]amino}pyrimidin-4-yl)-3-methyl-1H-pyrazol-5-yl]propan-2-ol]  20.3 nM
21. CCc1c(-c2ccc(F)cc2)nn(CC2CC2)c1Nc1cc(-n2nc(C)c3ccncc32)ncn1 [Example 205, N-[1-(cyclopropylmethyl)-4-ethyl-3-(4-fluorophenyl)-1H-pyrazol-5-yl]-6-(3-methyl-1H-pyrazolo[3,4-c]pyridin-1-yl)pyrimidin-4-amine]  20 nM
22. Cc1nn(-c2cc(Nc3nn(CC4CC4)c(-c4ccc(F)cc4)c3Cl)ncn2)c2cnccc12 [Example 207, N-[4-chloro-1-(cyclopropylmethyl)-5-(4-fluorophenyl)-1H-pyrazol-3-yl]-6-(3-methyl-1H-pyrazolo[3,4-c]pyridin-1-yl)pyrimidin-4-amine]  18 nM
23. Cc1cc(C)n(-c2cc(Nc3nn(C)c(-c4ccc(C(F)(F)F)cc4)c3C)ncn2)n1 [Example 101, 6-(3,5-dimethyl-1H-pyrazol-1-yl)-N-{1,4-dimethyl-5-[4-(trifluoromethyl)phenyl]-1H-pyrazol-3-yl}pyrimidin-4-amine]  11.5 nM
24. CCOC(=O)c1c(C)nn(-c2cc(Nc3c(C)c(-c4ccc(C(F)F)cc4)nn3CC3CC3)ncn2)c1C [Example 454, ethyl 1-[6-({1-(cyclopropylmethyl)-3-[4-(difluoromethyl)phenyl]-4-methyl-1H-pyrazol-5-yl}amino)pyrimidin-4-yl]-3,5-dimethyl-1H-pyrazole-4-carboxylate]  11 nM
25. CCc1c(-c2ccc(F)cc2)nn(C)c1Nc1cc(-n2nc(C)c3ccncc32)ncn1 [Example 206, N-[4-ethyl-3-(4-fluorophenyl)-1-methyl-1H-pyrazol-5-yl]-6-(3-methyl-1H-pyrazolo[3,4-c]pyridin-1-yl)pyrimidin-4-amine]  9 nM
26. Cc1nn(-c2cc(Nc3c(C)c(-c4ccc(C#N)cc4)nn3CC3CC3)ncn2)c(C)c1C(C)(O)C(F)(F)F (racemic) [Example 322, (±)-4-{1-(cyclopropylmethyl)-5-[(6-{3,5-dimethyl-4-[(2S)-1,1,1-trifluoro-2-hydroxypropan-2-yl]-1H-pyrazol-1-yl}pyrimidin-4-yl)amino]-4-methyl-1H-pyrazol-3-yl}benzonitrile (Racemate)]  4 nM
27. Cc1nn(-c2cc(Nc3nn(C)c(-c4ccc(F)cc4)c3C)ncn2)c(C)c1Cl [Example 67, 6-(4-chloro-3,5-dimethyl-1H-pyrazol-1-yl)-N-[5-(4-fluorophenyl)-1,4-dimethyl-1H-pyrazol-3-yl]pyrimidin-4-amine]  3.45 nM
28. COCCn1nc(-c2ccc(F)cc2)c(C)c1Nc1cc(-n2nc(C)c(Cl)c2C)ncn1 [Example 414, 6-(4-chloro-3,5-dimethyl-1H-pyrazol-1-yl)-N-[3-(4-fluorophenyl)-1-(2-methoxyethyl)-4-methyl-1H-pyrazol-5-yl]pyrimidin-4-amine]  3 nM
